Entries after “also recorded” stand apart in the source; their conditions may differ. Like-named read-outs stand apart in the source and are kept apart here. Marks after values point to notes of the source that are not given here.
How the values were obtained:
[1] = In vivo broiler trial (growth performance)
[2] = In vivo piglet trial (growth performance); parameters: species or system weaned piglets (Large-White x Redon); details: for ADFI (g/d), Mean / ADWG (g/d), Mean / FCR, Mean: SEQ ID NO: 257 50 mg/kg feed, VevoVital 5000 mg/kg feed; for ADFI, % relative NC / ADWG, % relative NC / FCR, % relative NC: relative to negative control
[3] = tested on: Clostridium perfringens DSM756; type: cell-based; details: for Diameter of clearing zone (mm): lysozymes 100 μg/ml, Bacitracin zinc salt 50 μg/ml; for Diameter of clearing zone (mm), bracketed with *: Incomplete inhibition of growth visible after MTT colouring: lysozyme 100 μg/ml; for Antimicrobial activity against Clostridium perfringens (in words): RDA
[4] = tested on: Micrococcus lysodeikticus ATTC No. 4698; assay: Lysozyme activity turbidity assay (optical density drop at 540 nm); details: for Lysozyme activity against Micrococcus lysodeikticus (in words): OD drop assay
[5] = tested on: Exiguobacterium undea (DSM14481); assay: as above; type: biochemical, Exiguobacterium undae; details: for Lysozyme activity against Exiguobacterium undea (in words): OD drop assay
[6] = Finisher (d 36-42), SEQ ID NO: 257 25 mg/kg feed, Avilamycin 10 mg/kg
[7] = Finisher (d 36-42), relative to unsupplemented control
[8] = Grower (d 22-36), SEQ ID NO: 257 25 mg/kg feed, Avilamycin 10 mg/kg
[9] = Grower (d 22-36), relative to unsupplemented control
[10] = Starter (d 1-22), SEQ ID NO: 257 25 mg/kg feed, Avilamycin 10 mg/kg
[11] = Starter (d 1-22), relative to unsupplemented control
[12] = Whole period (day 1 to day 42), SEQ ID NO: 257 25 mg/kg feed, Avilamycin 10 mg/kg
[13] = Whole period, relative to unsupplemented control

## COC[C@H]1O[C@@H](OC2OC[C@@H]3O[C@]4(O[C@H]3[C@H]2OC(=O)C(C)C)O[C@H](C)[C@@](O)(C(C)=O)[C@@H]2OCO[C@H]24)[C@@H](OC)[C@@H](O)[C@@H]1O[C@@H]1O[C@H](C)[C@H](OC)[C@H](O[C@H]2C[C@@]3(C)OC4(C[C@@H](O)[C@H](O[C@H]5C[C@@H](O)[C@H](OC(=O)c6c(C)c(Cl)c(O)c(Cl)c6OC)[C@@H](C)O5)[C@@H](C)O4)O[C@@H]3[C@@H](C)O2)[C@H]1O (some centres unmarked) [Avilamycin, reference compound]
[1]; [6]
  FCR: 1.982
  Feed intake (g/b): 1460 g/b
  Weight gain (g/b): 738 g/b
[1]; [7]
  FCR, Relative to C (%): 101.1%
  Feed intake, Relative to C (%): 98.2%
  Weight gain, Relative to C (%): 97.0%
[1]; [8]
  FCR: 1.683
  Feed intake (g/b): 2242 g/b
  Weight gain (g/b): 1334 g/b
[1]; [9]
  FCR, Relative to C (%): 97.7%
  Feed intake, Relative to C (%): 98.1%
  Weight gain, Relative to C (%): 100.4%
[1]; [10]
  FCR: 1.452
  Feed intake (g/b): 1593 g/b
  Weight gain (g/b): 1102 g/b
[1]; [11]
  FCR, Relative to C (%): 100.8%
  Feed intake, Relative to C (%): 101.0%
  Weight gain, Relative to C (%): 100.6%
[1]; [12]
  EPEF: 397
  FCR: 1.669
  Feed intake (g/b): 5312 g/b
  Motality: 12.5
  Weight gain (g/b): 3184 g/b
[1]; [13]
  EPEF, Relative to C (%): 95.0%
  FCR, Relative to C (%): 99.3%
  Feed intake, Relative to C (%): 99.3%
  Weight gain, Relative to C (%): 99.9%
[1]; whole period, Avilamycin 10 mg/kg
  EPEF worse by (compared to NC diet): 5.0%
[1]; whole period, GH24 lysozyme 25 mg/kg, Avilamycin 10 mg/kg
  FCR improvement compared to NC diet: 0.7%

## O=C(O)c1ccccc1 [VevoVital, benzoic acid]
[2]; day 0-14
  ADFI (g/d), Mean: 355 g/day
  ADWG (g/d), Mean: 304 g/day
  FCR, Mean: 1.168^a
  ADFI, % relative NC: 98.6%
  ADWG, % relative NC: 104.8%
  FCR, % relative NC: 94.2%
[2]; day 0-42
  ADFI (g/d), Mean: 709^ab g/d
  ADWG (g/d), Mean: 526 g/day
  FCR, Mean: 1.342^a
  ADFI, % relative NC: 96.6%
  ADWG, % relative NC: 105.4%
  FCR, % relative NC: 90.4%
[2]; day 14-42
  ADFI (g/d), Mean: 886^ab g/d
  ADWG (g/d), Mean: 638 g/day
  FCR, Mean: 1.398^a
  ADFI, % relative NC: 95.3%
  ADWG, % relative NC: 105.8%
  FCR, % relative NC: 90.5%
[2]; overall period (day 0 to day 42), lysozyme 50 mg/kg, VevoVital 5000 mg/kg
  Improvement on FCR compared to the negative control: 9.6%
[2]; pre-starter period (days 0-14)
  Improvement of ADWG compared to NC: 4.8%
[2]; starter period (days 14-42)
  Improvement of ADWG compared to NC: 5.8%
[2]; starter period, from day 15 to day 42, SEQ ID NO: 257 50 mg/kg, VevoVital (PC)
  Improvement to FCR compared to NC: 9.5%
[2]; whole period (day 0 to day 42)
  Improvement of ADWG compared to NC: 5.4%

## Bacitracin zinc salt [reference compound]
[3]; Experiment 1, 1/2 MHB pH 6
  Diameter of clearing zone (mm): 11 mm
[3]; Experiment 1, 1/10 MHB pH 7
  Diameter of clearing zone (mm): 22 mm
[3]; Experiment 2, 1/10 MHB pH 7
  Diameter of clearing zone (mm): 18 mm

B1: SEQ ID NO: 270: mature GH24 catalytic domain from Trichophaea saccata with QCVG-linker (SEQ ID NO: 257 lacking the LED) (protein)
chain: QCVGCKPPPINAATVALIKEFEGFVPKPAPDPIGLPTVGYGHLCKTKGCKEVPYSFPLTQETATKLLQSDIKTFTSCVSNYVKDSVKLNDNQYGALASWAFNVGCGNVQTSSLIKRLNAGENPNTVAAQELPKWKYAGGKVMPGLVRRRNAEVALFKKPSSVQAHPPKC
[4]
  Lysozyme activity against Micrococcus lysodeikticus (in words): no lysozyme activity
[4]; assay pH 6
  Lysozyme Activity against Micrococcus lysodeikticus as measured by Optical Density Drop: −
[3]; Experiment 1, 1/2 MHB pH 6
  Diameter of clearing zone (mm): 0 mm
[3]; Experiment 1, 1/10 MHB pH 7
  Diameter of clearing zone (mm), bracketed with *: Incomplete inhibition of growth visible after MTT colouring: (8)* mm
[3]; Experiment 2, 1/10 MHB pH 7
  Diameter of clearing zone (mm), bracketed with *: Incomplete inhibition of growth visible after MTT colouring: (5)* mm
[3]; 50% MHB, pH 6
  Antimicrobial activity against Clostridium perfringens (in words): no activity

B2: SEQ ID NO: 294: mature GH24 lysozyme from Chaetomium sp. ZY287 (protein, listed as Chaetomium sp.)
chain: YKISGSSVNCRSGPGTNYPVKKTYANGDEVTISCQTTGTNVEGNNIWDKTQHGCYVADKYVKTGKDGFVTKKCGSSGGGGGGKTCKAPKSNAATVDLIASFEGFRANIYTDATGHPTVGYGHMCTKSRCAEVKYKIPLSKADGKKLLADDMAKFEKCIKEMLNSKAKLNLNQYGALVSWSFNVGCGAAKGSQLVSRLNKGENPNTVLSNELPKWVHGNGKVLPGLVRRRNAEIALAKKSGSGAALPVKC
modifications: mat_peptide (1)..(249)
notes: mature GH24 lysozyme from Chaetomium sp; ZY287
[5]
  Lysozyme activity against Exiguobacterium undea (in words): good activity
[5]; assay pH 7 (Table 14)
  Lysozyme Activity against Exiguobacterium undae as measured by Optical Density Drop: +++
[4]
  Lysozyme activity against Micrococcus lysodeikticus (in words): good activity
[4]; assay pH 7 (Table 14)
  Lysozyme Activity against Micrococcus lysodeikticus as measured by Optical Density Drop: +++

B3: SEQ ID NO: 269: amino acid sequence deduced from SEQ ID NO: 268: GH24 catalytic domain with QCVG-linker and signal peptide; precursor of SEQ ID NO: 270 (protein)
chain: MAKVSTLTIALLTMASQARAQCVGCKPPPINAATVALIKEFEGFVPKPAPDPIGLPTVGYGHLCKTKGCKEVPYSFPLTQETATKLLQSDIKTFTSCVSNYVKDSVKLNDNQYGALASWAFNVGCGNVQTSSLIKRLNAGENPNTVAAQELPKWKYAGGKVMPGLVRRRNAEVALFKKPSSVQAHPPKC
[3]; 1/10 MHB, pH 7
  Antimicrobial activity against Clostridium perfringens (in words): incomplete inhibition of growth
[3]; 50% MHB, pH 6
  Antimicrobial activity against Clostridium perfringens (in words): no inhibition of growth

B4: SEQ ID NO: 300: mature GH24 lysozyme from Metarhizium sp. XZ2431 (protein, listed as Metarhizium sp.)
chain: YPVSADSLNCRAEPNTSSAIKTTYKKGEDVKISCQTEGPSINGNTIWDKTQDGCYVADYYVKTGSSGYVTGKCGGSSPPSGSGFCKTVNKAGLDLITKWEGFVSSPRGDPIGLPTVGYGHLCQKKGCAEVKYKFPLTKATALQLLNDDLPKYTGCLGKLLNSKVKLNDNQWAALTSWVFNVGCGNAQSSSLVRRLNNGENPNTVAPSELPKWKMAGGKVLEGLVKRRADEVRLFKVSSSKGAFPKCQ
modifications: mat_peptide (1)..(247)
notes: mature GH24 lysozyme from Metarhizium sp; XZ2431
[5]
  Lysozyme activity against Exiguobacterium undea (in words): good activity
[5]; assay pH 6 (Table 14)
  Lysozyme Activity against Exiguobacterium undae as measured by Optical Density Drop: +++
[4]
  Lysozyme activity against Micrococcus lysodeikticus (in words): good activity
[4]; assay pH 6 (Table 14)
  Lysozyme Activity against Micrococcus lysodeikticus as measured by Optical Density Drop: +++

B5: SEQ ID NO: 297: mature GH24 lysozyme from Mortierella sp. ZY002 (protein, listed as Mortierella sp.)
chain: YPITGADALHCRSGPGTSYPIQKTLRPPQDIKIQCQEPGTVVNGVSLWDKTQFGCYVSDYYVKTGTGNYVAPRCNSGGSSSACTGLNDAGINLIKEFEGFVPRPAPDPIGLPTVGYGHLCQTKGCGEVKYSFPLTTATATALLKDDLPKYTSCLAKALNGKPKLNKNQWAALASWTFNVGCGNMKSSSLITRLNAGQNPNTVATEELPKWKLAGGKVLPGLVRRRAAEVKLFKTANSSQGYPKCA
modifications: mat_peptide (1)..(245)
notes: mature GH24 lysozyme from Mortierella sp; ZY002
[5]
  Lysozyme activity against Exiguobacterium undea (in words): good activity
[5]; assay pH 6 (Table 14)
  Lysozyme Activity against Exiguobacterium undae as measured by Optical Density Drop: +++
[4]
  Lysozyme activity against Micrococcus lysodeikticus (in words): good activity
[4]; assay pH 6 (Table 14)
  Lysozyme Activity against Micrococcus lysodeikticus as measured by Optical Density Drop: ++++

B6: SEQ ID NO: 291: mature GH24 lysozyme from Trichophaea minuta (protein, listed as Trichophaea minuta)
chain: YPAKVDLRCRSSPSTSASVVRTYSKGSEIQISCQTTGTSVEGSNVWDKTQHGCYVADYYVKTGHSGIFTTKCGSSSGGGSCKPPPINAATVALIKEFEGFVAKPAPDPIGLPTVGYGHLCKTKGCKEVPYSFPLTQTTATKLLQSDIKTFTSCVSNYVKDSVKLNDNQFGALSSWAFNVGCGNIQTSSLIKRLNAGENPNTVAAQELPKWKYAGGKVLPGLVRRRKAEVALFKKPSSVQAHPPKC
modifications: mat_peptide (1)..(245)
notes: mature GH24 lysozyme from Trichophaea minuta
[5]
  Lysozyme activity against Exiguobacterium undea (in words): good activity
[5]; assay pH 6 (Table 14)
  Lysozyme Activity against Exiguobacterium undae as measured by Optical Density Drop: ++++
[4]
  Lysozyme activity against Micrococcus lysodeikticus (in words): good activity
[4]; assay pH 6 (Table 14)
  Lysozyme Activity against Micrococcus lysodeikticus as measured by Optical Density Drop: ++++

B7: SEQ ID NO: 279: mature GH24 lysozyme from Acremonium alcalophilum, mature sequence of SEQ ID NO: 4 of WO 2013/076259; no LED (protein, listed as Acremonium alcalophilum)
chain: QCVGPEVNSASINLIKEFEGWYPDIYVDPAGYPTVGYGHLCSDSSCSDVSYSIPLSEADGENLLRDDITNFQNCITWQTASSVVLNANQYGALVSWAFNVGCGASESSSLIARLNAGEDPNTVAEEELPRWNQGGGQVLPGLVRRRAAEVELHQIPTDVAALPACS
modifications: mat_peptide (1)..(166)
notes: no LED
[3]; Experiment 1, 1/2 MHB pH 6
  Diameter of clearing zone (mm): 0 mm
[3]; Experiment 1, 1/10 MHB pH 7
  Diameter of clearing zone (mm): 0 mm
[3]; Experiment 2, 1/10 MHB pH 7
  Diameter of clearing zone (mm): 0 mm
[3]; tested conditions (1/10 MHB pH 7 and 1/2 MHB pH 6)
  Antimicrobial activity against Clostridium perfringens (in words): do not have any activity; also recorded: did not inhibit growth
